# Tests used:
# [1] = Plasma concentrations of TAM, TOR and their metabolites by LC–MS/MS (screening study)
# [2] = patients homozygous for CYP2D6 PM genotype on double dose (40 mg) of TAM; cited from earlier work
# [3] = weighting of plasma concentration; cited from earlier work
# [4] = 14 poor TAM metabolizers enrolled in the dose-escalation study
# [5] = patients on TAM 20 mg a day, N=182
smiles,measurement,setting,value
"CC/C(=C(\c1ccc(O)cc1)c1ccc(OCCNC)cc1)c1ccccc1 [Endoxifen, endoxifen]","Endoxifen on TAM 20 mg, max",[1]; [4],12.6 ng/mL
same,"Endoxifen on TAM 20 mg, mean",[1]; [4],9.7 ng/mL
same,"Endoxifen on TAM 20 mg, median",[1]; [4],10.4 ng/mL
same,"Endoxifen on TAM 20 mg, min",[1]; [4],1.8 ng/mL
same,Patients with endoxifen levels lower than 15 ng/mL,[1]; among the 182 patients on TAM,50
same,Patients with endoxifen levels < 7.5 ng/mL,[1]; of the 273 participating patients,11
same,"Plasma concentration, max",[1]; [5],64.5 ng/mL
same,"Plasma concentration, mean",[1]; [5],23.5 ng/mL
same,"Plasma concentration, median",[1]; [5],22.8 ng/mL
same,"Plasma concentration, min",[1]; [5],1.8 ng/mL
same,"Plasma concentration, variability (range)",[1]; patients taking TAM 20 mg a day,1.8 to 64.5 ng/mL
same,Endoxifen concentration relative to EMs,[2],less than one-half of the endoxifen concentrations for EMs
same,In vitro activity factor in the total activity of TAM (TAM = 1.0),[3],46.3

# Source: paper PMC6694038, “Pharmacogenomic–pharmacokinetic study of selective estrogen-receptor modulators with intra-patient dose escalation in breast cancer” (Breast Cancer (Tokyo, Japan), 2019)
